Laboratory results reported in US10988459B2 (priority 2015, dated 2021).

target: human RIP1 kinase domain (2-375) (Homo sapiens (Human), UniProt Q13546); test: biochemical; assay type: biochemical; conditions: Table 5; apparent Ki (Morrison tight-binding fit); 50 nM RIP1 kinase domain, 50 uM ATP, 2 hours incubation; read-out: Ki
Procedure, shortened: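 50 nM purified kinase domain from baculovirus-infected insect cells, incubated 2 h with compound in 50 mM Hepes pH 7.5, 30 mM MgCl2, 1 mM DTT, 50 uM ATP, 0.002% Brij-35, 0.5% DMSO. ADP formation read by Transcreener FP at 633 nm excitation. Ki^app fitted with the Morrison tight-binding equation.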

Chain of human RIP1 kinase domain (2-375) (Q13546 2-375): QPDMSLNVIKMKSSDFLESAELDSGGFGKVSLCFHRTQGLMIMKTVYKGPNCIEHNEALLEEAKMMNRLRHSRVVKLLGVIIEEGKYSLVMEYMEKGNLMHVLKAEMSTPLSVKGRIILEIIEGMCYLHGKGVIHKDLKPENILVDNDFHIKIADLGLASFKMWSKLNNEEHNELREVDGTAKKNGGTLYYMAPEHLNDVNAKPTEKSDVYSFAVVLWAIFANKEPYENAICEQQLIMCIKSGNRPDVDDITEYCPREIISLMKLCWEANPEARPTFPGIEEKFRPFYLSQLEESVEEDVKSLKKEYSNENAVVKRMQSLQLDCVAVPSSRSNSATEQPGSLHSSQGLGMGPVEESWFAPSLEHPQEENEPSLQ

Row | SMILES | Ki
1 | CCn1cc(-c2cc3n(n2)CCC(NC(=O)c2ncn(Cc4ccccc4)n2)C(=O)N3C)cn1 (single isomer, unassigned) [Example 698, 1-benzyl-N-[2-(1-ethylpyrazol-4-yl)-4-methyl-5-oxo-7,8-dihydro-6H-pyrazolo[1,5-a][1,3]diazepin-6-yl]-1,2,4-triazole-3-carboxamide] | 0.027 µM
2 | CC(C)[C@@H]1CCCc2nc(C(=O)N[C@H]3COc4cc(F)cc(F)c4NC3=O)nn21 (single isomer, unassigned) [Example 715] | 0.005 µM
3 | CCC[C@@H]1CCCc2nc(C(=O)N[C@H]3COc4cc(F)cc(F)c4NC3=O)nn21 (single isomer, unassigned) [Example 716] | 0.003 µM
4 | CC(C)[C@H]1CCCc2nc(C(=O)N[C@H]3COc4cc(F)cc(F)c4NC3=O)nn21 (single isomer, unassigned) [Example 717] | 0.207 µM
5 | CN1C(=O)C(NC(=O)c2ncn(Cc3ccccc3)n2)CCn2nc(CN3CCC(F)(F)C3)cc21 (single isomer, unassigned) [Example 719, 1-benzyl-N-[2-[(3,3-difluoropyrrplidin-1-yl)methyl]-4-methyl-5-oxo-7,8-dihydro-6H-pyrazolo[1,5-a][1,3]diazepin-6-yl]-1,2,4-triazole-3-carboxamide] | 0.214 µM
6 | CN1C(=O)[C@@H](NC(=O)c2ncn(Cc3ccccc3)n2)CCn2nc(CN3CCOCC3)cc21 (single isomer, unassigned) [Example 720] | 0.155 µM
7 | CN1C(=O)C(NC(=O)c2ncn(Cc3ccccc3)n2)CCn2nc(CN3CC(F)C3)cc21 (single isomer, unassigned) [Example 721, 1-benzyl-N-[2-[(3-fluoroazetidin-1-yl)methyl]-4-methyl-5-oxo-7,8-dihydro-6H-pyrazolo[1,5-a][1,3]diazepin-6-yl]-1,2,4-triazole-3-carboxamide] | 0.355 µM
8 | COC1CN(Cc2cc3n(n2)CCC(NC(=O)c2ncn(Cc4ccccc4)n2)C(=O)N3C)C1 (single isomer, unassigned) [Example 722, 1-benzyl-N-[2-[(3-methoxyazetidin-1-yl)methyl]-4-methyl-5-oxo-7,8-dihydro-6H-pyrazolo[1,5-a][1,3]diazepin-6-yl]-1,2,4-triazole-3-carboxamide] | 0.444 µM
9 | COCCNCc1cc2n(n1)CCC(NC(=O)c1ncn(Cc3ccccc3)n1)C(=O)N2C (single isomer, unassigned) [Example 724, 1-benzyl-N-[2-[(2-methoxyethylamino)methyl]-4-methyl-5-oxo-7,8-dihydro-6H-pyrazolo[1,5-a][1,3]diazepin-6-yl]-1,2,4-triazole-3-carboxamide] | 0.598 µM

same assay, conditions: tight-binding apparent inhibition constant; human RIP1 kinase domain (2-375) 50 nM, 50 uM ATP, 2 hours; read-out: Ki

Row | SMILES | Ki
10 | CCC[C@H]1CCCc2nc(C(=O)N[C@H]3CCc4cc(F)cc(F)c4NC3=O)nn21 (single isomer, unassigned) [Example 435] | 0.0252 µM
11 | CC(C)[C@@H]1CCCc2nc(C(=O)N[C@H]3CCc4cc(F)cc(F)c4NC3=O)nn21 (single isomer, unassigned) [Example 436] | 0.0203 µM
12 | CCC[C@@H]1CCCc2nc(C(=O)N[C@H]3CCc4cc(F)cc(F)c4NC3=O)nn21 (single isomer, unassigned) [Example 437] | 0.00843 µM
13 | Cc1cc(F)c2c(c1)OC[C@H](NC(=O)c1nc3n(n1)[C@@H](C(C)C)CCC3)C(=O)N2 (single isomer, unassigned) [Example 438] | 0.15 µM
14 | CCC[C@H]1CCCc2nc(C(=O)N[C@H]3COc4cc(C)cc(F)c4NC3=O)nn21 (single isomer, unassigned) [Example 439] | 0.00662 µM
15 | Cc1cc(F)c2c(c1)OC[C@H](NC(=O)c1nc3n(n1)[C@H](C(C)C)CCC3)C(=O)N2 (single isomer, unassigned) [Example 440] | 0.00346 µM
16 | CCC[C@@H]1CCCc2nc(C(=O)N[C@H]3COc4cc(C)cc(F)c4NC3=O)nn21 (single isomer, unassigned) [Example 441] | 0.00929 µM
17 | CC(C)[C@@H]1CCCc2nc(C(=O)N[C@H]3COc4cc(F)cc(F)c4NC3=O)nn21 (single isomer, unassigned) [Example 444] | 0.00467 µM
18 | CCC[C@@H]1CCCc2nc(C(=O)N[C@H]3COc4cc(F)cc(F)c4NC3=O)nn21 (single isomer, unassigned) [Example 445] | 0.00347 µM
19 | CCC[C@H]1CCCc2nc(C(=O)N[C@H]3COc4cc(F)cc(F)c4NC3=O)nn21 (single isomer, unassigned) [Example 446] | 0.00706 µM
20 | CC(C)[C@H]1CCCc2nc(C(=O)N[C@H]3COc4cc(F)cc(F)c4NC3=O)nn21 (single isomer, unassigned) [Example 447] | 0.207 µM
21 | CN1C(=O)C(NC(=O)c2ncn(Cc3ccccc3)n2)CCn2nc(CN3CCC(F)(F)C3)cc21 (single isomer, unassigned) [Example 448, 1-benzyl-N-(2-((3,3-difluoropyrrolidin-1-yl)methyl)-4-methyl-5-oxo-5,6,7,8-tetrahydro-4H-pyrazolo[1,5-a][1,3]diazepin-6-yl)-1H-1,2,4-triazole-3-carboxamide] | 0.214 µM
22 | CN1C(=O)[C@@H](NC(=O)c2ncn(Cc3ccccc3)n2)CCn2nc(CN3CCOCC3)cc21 (single isomer, unassigned) [Example 449] | 0.115 µM
23 | CN1C(=O)C(NC(=O)c2ncn(Cc3ccccc3)n2)CCn2nc(CN3CC(F)C3)cc21 (single isomer, unassigned) [Example 450, 1-benzyl-N-(2-((3-fluoroazetidin-1-yl)methyl)-4-methyl-5-oxo-5,6,7,8-tetrahydro-4H-pyrazolo[1,5-a][1,3]diazepin-6-yl)-1H-1,2,4-triazole-3-carboxamide] | 0.355 µM
24 | COC1CN(Cc2cc3n(n2)CCC(NC(=O)c2ncn(Cc4ccccc4)n2)C(=O)N3C)C1 (single isomer, unassigned) [Example 451, 1-benzyl-N-(2-((3-methoxyazetidin-1-yl)methyl)-4-methyl-5-oxo-5,6,7,8-tetrahydro-4H-pyrazolo[1,5-a][1,3]diazepin-6-yl)-1H-1,2,4-triazole-3-carboxamide] | 0.444 µM
25 | Cc1cc2n(n1)CC[C@H](NC(=O)c1nc3n(n1)[C@H](c1ccccc1)CC3)C(=O)N2C (single isomer, unassigned) [Example 610] | 0.92 µM
26 | O=C(N[C@H]1CCc2cc(F)cc(F)c2NC1=O)c1nc2n(n1)[C@H](c1ccccc1)CC2 (single isomer, unassigned) [Example 612] | 0.071 µM
27 | CN1C(=O)[C@@H](NC(=O)c2nc3n(n2)[C@H](c2ccccc2)CC3)COc2ccccc21 (single isomer, unassigned) [Example 613] | 0.071 µM
28 | CN1C(=O)[C@@H](NC(=O)c2nc3n(n2)[C@H](c2ccccc2)CC3)CCn2nccc21 (single isomer, unassigned) [Example 614] | 0.79 µM
29 | CN1C(=O)[C@@H](NC(=O)c2nc3n(n2)[C@@H](c2ccccc2)CC3)CCn2nccc21 (single isomer, unassigned) [Example 624] | 0.02 µM
30 | O=C(N[C@H]1CCc2cc(F)cc(F)c2NC1=O)c1nc2n(n1)CC[C@@H]2c1ccccc1 (single isomer, unassigned) [Example 627] | 0.16 µM
31 | O=C(N[C@H]1CCc2cc(F)cc(F)c2NC1=O)c1nc2n(n1)CC[C@H]2c1ccccc1 (single isomer, unassigned) [Example 628] | 0.005 µM
32 | CN1C(=O)[C@H](NC(=O)c2ncn(Cc3ccc(Cl)cc3)n2)CCn2nc(C3CC3)cc21 (single isomer, unassigned) [Example 671] | 8.2 µM
